Values joined by “and” are separate entries in the source; they are usually repeats but may differ in a detail not shown here. Equal entries are not always repeated.
Legend:
[1] = test system: preferentially upregulated genes in LV, SP, LN; test: Z-score-based differential gene expression analysis (adjuvant group- or adjuvant-associated genes, 40 module mapping, TargetMine annotation); format: in vivo, C57BL/6 mice; conditions: liver (LV); gene group G1, module 20; individual mice x1-x3; route ID/IP/IN
Procedure, shortened: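 Gene groups for each organ were built from combined z-score cutoffs across adjuvants, ranging from z>1 to z>3. Scores came from fold changes standardized per gene over the whole organ data set, with the three replicate z-scores added per adjuvant; sums above 3 marked preferential expression.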

liver (LV) = test: Whole organ transcriptome (GeneChip microarray) of liver 6 h after adjuvant administration: sDEGs, hierarchical clustering; format: in vivo, C57BL/6 mice; conditions: liver; as to adjuvant group (cluster) in LV: key: G1 (interferon signaling); G2 (metabolism of lipids and lipoproteins); G3 (response to stress); G4 (response to wounding); G5 (phosphate-containing compound metabolic process); G6 (phagosome)
liver = conditions: mouse, in vivo, ip
Description: After 3 hours/6 hours, blood and liver were collected on day 1, day 2, day 3, and day 5. Hematoxylin and eosin staining was applied to the collected liver and histologically analyzed (FIG. 20).

## heptanoyl-γ-D-glutamyl-(L)-meso-diaminopimelyl-(D)-alanine [FK565]
[1]
  Z score of gene expression, Adar (probe 1425405_a_at): −0.4 (2×) and −0.5
  Z score of gene expression, Adar (probe 1434268_at): −0.1
  Z score of gene expression, Ddx58 (probe 1436562_at): −0.2 (2×) and −0.3
  Z score of gene expression, Ddx58 (probe 1456890_at): −0.5 (2×) and −0.1
  Z score of gene expression, Eif2ak2 (probe 1422005_at): 0.05 and 0.09 and −0.1
  Z score of gene expression, G3bp2 (probe 1421323_a_at): −0.3 (2×) and −0.2
  Z score of gene expression, Gm9706///Isg15 (probe 1431591_s_at): −0.1 (2×) and −0.2
  Z score of gene expression, H2-T10///H2-T22///H2-T9 (probe 1449875_s_at): 0.21 and 0.04 and 0.29
  Z score of gene expression, Ifih1 (probe 1426276_at): −0.3
  Z score of gene expression, Ifit1 (probe 1449025_at): −0.4
  Z score of gene expression, Ifit1 (probe 1450783_at): −0.4
  Z score of gene expression, Irf7 (probe 1417244_a_at): −0.3 (2×) and −0.4
  Z score of gene expression, Irgm1 (probe 1418825_at): 0.07 and 0.13 and 0.08
  Z score of gene expression, Mndal (probe 1426906_at): −0.4 and −0.5 (2×)
  Z score of gene expression, Pml (probe 1448757_at): −0.5 and −0.6 and −0.8
  Z score of gene expression, Pml (probe 1456103_at): −0.5
  Z score of gene expression, Rnf213 (probe 1455500_at): 0.02 and 0.06 and 0.03
  Z score of gene expression, Rsad2 (probe 1436058_at): −0.4
  Z score of gene expression, Shisa5 (probe 1423986_a_at): −0.1 and 0.01 and 0.18
  Z score of gene expression, Shisa5 (probe 1437503_a_at): −0.2 and −0.3 and −0.1
  Z score of gene expression, Stat1 (probe 1450033_a_at): −0.1 and −0 and 0
  Z score of gene expression, Stat1 (probe 1450034_at): −0.1 (2×) and −0
  Z score of gene expression, Tdrd7 (probe 1426716_at): −0.5 (2×) and −0.4
  Z score of gene expression, Tor1aip2 (probe 1418115_s_at): −0.6 and −0.5 (2×)
  Z score of gene expression, Tor1aip2 (probe 1418116_at): −0.7 (2×) and −0.9
  Z score of gene expression, Tor1aip2 (probe 1435526_at): −0.8 and −0.9 (2×)
  Z score of gene expression, Trim12a (probe 1437432_a_at): 0.1 and −0.1 and −0.2
  Z score of gene expression, Uba7 (probe 1426970_a_at): −0.4 and −0.5 and −0.3
Liver (LV); hierarchical clustering
  adjuvant group (cluster) in LV: G3
Liver (LV); i.d. administration, fold change <0.667, p<0.01, customized PA call=1, 6 h after adjuvant
  Number of gene probes with statistically significant changes (sDEGs), LV, Down: 1972
Liver (LV); i.d. administration, fold change >1.5, p<0.01, customized PA call=1, 6 h after adjuvant
  Number of gene probes with statistically significant changes (sDEGs), LV, Up: 2094
liver
  histological finding in liver (hematoxylin and eosin): liver damage
